In patent publication US20240124460A1, “METHODS AND COMPOSITIONS FOR TARGETED PROTEIN DEGRADATION” (Ranok Therapeutics (Hangzhou) Co. Ltd., priority 2020, published 2024):

Assays:
[1] = tested on: MV-4-11 human acute myeloid leukemia; test: MV-4-11 CCK-8 proliferation assay; assay type: cell-based; details: Homo sapiens, MV4-11; MV-4-11 cells, 72 hr
Procedure, shortened: (§1)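 Lines were maintained according to ATCC guidance. Compounds were then applied as a 3-fold titration from 20 μM to 1.02 nM, and proliferation was measured by CCK-8 absorbance, normalised to DMSO controls minus a no-cell blank.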

HSP90α protein = molecular target: T1, HSP90α protein (Homo sapiens, UniProt P07900); test: HSP90α-binding FP (BODIPY) assay; details: FP competition with BODIPY-labeled RNK04010
T1 construct: purchased BPS Bioscience #50298
Procedure, shortened: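 Fluorescence polarization measured competition with N-terminal human HSP90α, using either FITC-geldanamycin or BODIPY-labelled triazolone RNK04010 as tracer (5 nM final each). Compounds were tested in 2.5-fold dilutions from 20 μM to 5.2 nM, with incubation at 25 °C for 120 min (FITC) or 300 min (BODIPY).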

[2] = tested on: U-87 MG human glioblastoma; test: U87 MG CCK-8 proliferation assay; assay type: cell-based; details: Homo sapiens, U-87 MG, 72 h, U-87 MG cells, read-out: U87MG CCK-8
Procedure, shortened: as §1

CCOc1cc(N2CCC(C(=O)NCCOCCOc3ccc(Nc4ccc(-n5nc(C(F)(F)F)c6c5CC(C)(C)CC6=O)cc4C(N)=O)cc3)CC2)ccc1Nc1ncc2c(n1)N(S(C)(=O)=O)c1ccccc1C(=O)N2C [Compound 067, N-(2-(2-(4-((2-carbamoyl-4-(6,6-dimethyl-4-oxo-3-(trifluoromethyl)-4,5,6,7-tetrahydro-1H-indazol-1-yl)phenyl)amino)phenoxy)ethoxy)ethyl)-1-(3-ethoxy-4-((5-methyl-11-(methylsulfonyl)-6-oxo-6,11-dihydro-5H-benzo[e]pyrimido[5,4-b][1,4]diazepin-2-yl)amino)phenyl)piperidine-4-carboxamide]
EC50 [1]: 100 to 1000 nM
IC50 (HSP90α protein): > 1000 nM
EC50 [2]: > 1000 nM

CCOc1cc(N2CCC(C(=O)N3CCC(CN4CCN(CCCOc5ccc(Nc6ccc(-n7nc(C(F)(F)F)c8c7CC(C)(C)CC8=O)cc6C(N)=O)cc5)CC4)CC3)CC2)ccc1Nc1ncc2c(n1)N(S(C)(=O)=O)c1ccccc1C(=O)N2C [Compound 068, 5-(6,6-dimethyl-4-oxo-3-(trifluoromethyl)-4,5,6,7-tetrahydro-1H-indazol-1-yl)-2-((4-(3-(4-((1-(1-(3-ethoxy-4-((5-methyl-11-(methylsulfonyl)-6-oxo-6,11-dihydro-5H-benzo[e]pyrimido[5,4-b][1,4]diazepin-2-yl)amino)phenyl)piperidine-4-carbonyl)piperidin-4-yl)methyl)piperazin-1-yl)propoxy)phenyl)amino)benzamide]
EC50 [1]: 100 to 1000 nM
IC50 (HSP90α protein): > 1000 nM
EC50 [2]: > 1000 nM

CCOc1cc(N2CCC(C(=O)N3CCC(N4CCN(Cc5ccc(-n6c(O)nnc6-c6cc(C(C)C)c(O)cc6O)cc5C(F)(F)F)CC4)CC3)CC2)ccc1Nc1ncc2c(n1)N(S(C)(=O)=O)c1ccccc1C(=O)N2C [Compound 069, 2-((4-(4-(4-(4-(4-(3-(2,4-dihydroxy-5-isopropylphenyl)-5-hydroxy-4H-1,2,4-triazol-4-yl)-2-(trifluoromethyl)benzyl)piperazin-1-yl)piperidine-1-carbonyl)piperidin-1-yl)-2-ethoxyphenyl)amino)-5-methyl-11-(methylsulfonyl)-5,11-dihydro-6H-benzo[e]pyrimido[5,4-b][1,4]diazepin-6-one]
EC50 [1]: < 100 nM
IC50 (HSP90α protein): 100 to 1000 nM
EC50 [2]: 100 to 1000 nM

CCOc1cc(N2CCC(C(=O)NCc3ccc(-n4c(O)nnc4-c4cc(CC)c(O)cc4O)cc3)CC2)ccc1Nc1ncc2c(n1)N(S(C)(=O)=O)c1ccccc1C(=O)N2C [Compound 071, 1-(3-ethoxy-4-((5-methyl-11-(methylsulfonyl)-6-oxo-6,11-dihydro-5H-benzo[e]pyrimido[5,4-b][1,4]diazepin-2-yl)amino)phenyl)-N-(4-(3-(5-ethyl-2,4-dihydroxyphenyl)-5-hydroxy-4H-1,2,4-triazol-4-yl)benzyl)piperidine-4-carboxamide]
EC50 [1]: 100 to 1000 nM
IC50 (HSP90α protein): 100 to 1000 nM
EC50 [2]: > 1000 nM

CCOc1cc(N2CCC(C(=O)N3CCN(Cc4ccc(-n5c(O)nnc5-c5cc(C(C)C)c(O)cc5O)cc4C(F)(F)F)CC3)CC2)ccc1Nc1ncc2c(n1)N(S(C)(=O)=O)c1ccccc1C(=O)N2C [Compound 072, 2-((4-(4-(4-(4-(3-(2,4-dihydroxy-5-isopropylphenyl)-5-hydroxy-4H-1,2,4-triazol-4-yl)-2-(trifluoromethyl)benzyl)piperazine-1-carbonyl)piperidin-1-yl)-2-ethoxyphenyl)amino)-5-methyl-11-(methylsulfonyl)-5,11-dihydro-6H-benzo[e]pyrimido[5,4-b][1,4]diazepin-6-one]
EC50 [1]: < 100 nM
IC50 (HSP90α protein): 100 to 1000 nM
EC50 [2]: 100 to 1000 nM

CCOc1cc(N2CCC(C(=O)NCc3ccc(-n4c(O)nnc4-c4cc(C)c(O)cc4O)cc3)CC2)ccc1Nc1ncc2c(n1)N(S(C)(=O)=O)c1ccccc1C(=O)N2C [Compound 073, N-(4-(3-(2,4-dihydroxy-5-methylphenyl)-5-hydroxy-4H-1,2,4-triazol-4-yl)benzyl)-1-(3-ethoxy-4-((5-methyl-11-(methylsulfonyl)-6-oxo-6,11-dihydro-5H-benzo[e]pyrimido[5,4-b][1,4]diazepin-2-yl)amino)phenyl)piperidine-4-carboxamide]
EC50 [1]: > 1000 nM
IC50 (HSP90α protein): > 1000 nM
EC50 [2]: > 1000 nM

CCCc1cc(-c2nnc(O)n2-c2ccc(CNC(=O)C3CCN(c4ccc(Nc5ncc6c(n5)N(S(C)(=O)=O)c5ccccc5C(=O)N6C)c(OCC)c4)CC3)cc2)c(O)cc1O [Compound 074, N-(4-(3-(2,4-dihydroxy-5-propylphenyl)-5-hydroxy-4H-1,2,4-triazol-4-yl)benzyl)-1-(3-ethoxy-4-((5-methyl-11-(methylsulfonyl)-6-oxo-6,11-dihydro-5H-benzo[e]pyrimido[5,4-b][1,4]diazepin-2-yl)amino)phenyl)piperidine-4-carboxamide]
EC50 [1]: 100 to 1000 nM
IC50 (HSP90α protein): > 1000 nM
EC50 [2]: > 1000 nM

CCOc1cc(N2CCC(C(=O)N3CCC(Cc4ccc(CN(C)Cc5ccc(-n6c(C(=O)NCC(F)(F)F)nnc6-c6cc(C(C)C)c(O)cc6O)cc5)cc4)CC3)CC2)ccc1Nc1ncc2c(n1)N(S(C)(=O)=O)c1ccccc1C(=O)N2C [Compound 076, 5-(2,4-dihydroxy-5-isopropylphenyl)-4-(4-(((4-((1-(1-(3-ethoxy-4-((5-methyl-11-(methylsulfonyl)-6-oxo-6,11-dihydro-5H-benzo[e]pyrimido[5,4-b][1,4]diazepin-2-yl)amino)phenyl)piperidine-4-carbonyl)piperidin-4-yl)methyl)benzyl)(methyl)amino)methyl)phenyl)-N-(2,2,2-trifluoroethyl)-4H-1,2,4-triazole-3-carboxamide]
EC50 [1]: 100 to 1000 nM
IC50 (HSP90α protein): > 1000 nM
EC50 [2]: > 1000 nM

CCOc1cc(N2CCC(C(=O)N[C@H](C)c3ccc(CN4CCC(Cc5ccc(-n6c(O)nnc6-c6cc(C(C)C)c(O)cc6O)cc5)CC4)cc3)CC2)ccc1Nc1ncc2c(n1)N(S(C)(=O)=O)c1ccccc1C(=O)N2C [Compound 077, (R)—N-(1-(4-((4-(4-(3-(2,4-dihydroxy-5-isopropylphenyl)-5-hydroxy-4H-1,2,4-triazol-4-yl)benzyl)piperidin-1-yl)methyl)phenyl)ethyl)-1-(3-ethoxy-4-((5-methyl-11-(methylsulfonyl)-6-oxo-6,11-dihydro-5H-benzo[e]pyrimido[5,4-b][1,4]diazepin-2-yl)amino)phenyl)piperidine-4-carboxamide]
EC50 [1]: < 100 nM
IC50 (HSP90α protein): 100 to 1000 nM
EC50 [2]: 100 to 1000 nM

CCOc1cc(N2CCC(C(=O)NCC3CCN(C(=O)C4CCN(Cc5ccc(-n6c(O)nnc6-c6cc(CC)c(O)cc6O)cc5)CC4)CC3)CC2)ccc1Nc1ncc2c(n1)N(S(C)(=O)=O)c1ccccc1C(=O)N2C [Compound 079, 1-(3-ethoxy-4-((5-methyl-11-(methylsulfonyl)-6-oxo-6,11-dihydro-5H-benzo[e]pyrimido[5,4-b][1,4]diazepin-2-yl)amino)phenyl)-N-((1-(1-(4-(3-(5-ethyl-2,4-dihydroxyphenyl)-5-hydroxy-4H-1,2,4-triazol-4-yl)benzyl)piperidine-4-carbonyl)piperidin-4-yl)methyl)piperidine-4-carboxamide]
EC50 [1]: 100 to 1000 nM
IC50 (HSP90α protein): < 100 nM
EC50 [2]: > 1000 nM

CCOc1cc(N2CCC(C(=O)NCc3ccc(-n4c(O)nnc4-c4cc(C(C)C)c(O)cc4O)cc3)CC2)ccc1Nc1ncc2c(n1)N(S(C)(=O)=O)c1ccccc1C(=O)N2C [Compound 080, N-(4-(3-(2,4-dihydroxy-5-isopropylphenyl)-5-hydroxy-4H-1,2,4-triazol-4-yl)benzyl)-1-(3-ethoxy-4-((5-methyl-11-(methylsulfonyl)-6-oxo-6,11-dihydro-5H-benzo[e]pyrimido[5,4-b][1,4]diazepin-2-yl)amino)phenyl)piperidine-4-carboxamide]
EC50 [1]: < 100 nM
IC50 (HSP90α protein): 100 to 1000 nM
EC50 [2]: > 1000 nM

CCOc1cc(N2CCC(C(=O)N3CCC(CN4CCN(Cc5ccc(-n6c(C(=O)NCC(F)(F)F)nnc6-c6cc(C)c(O)cc6O)cc5)CC4)CC3)CC2)ccc1Nc1ncc2c(n1)N(S(C)(=O)=O)c1ccccc1C(=O)N2C [Compound 081, 5-(2,4-dihydroxy-5-methylphenyl)-4-(4-((4-((1-(1-(3-ethoxy-4-((5-methyl-11-(methylsulfonyl)-6-oxo-6,11-dihydro-5H-benzo[e]pyrimido[5,4-b][1,4]diazepin-2-yl)amino)phenyl)piperidine-4-carbonyl)piperidin-4-yl)methyl)piperazin-1-yl)methyl)phenyl)-N-(2,2,2-trifluoroethyl)-4H-1,2,4-triazole-3-carboxamide]
EC50 [1]: < 100 nM
IC50 (HSP90α protein): < 100 nM
EC50 [2]: 100 to 1000 nM

CCOc1cc(N2CCC(C(=O)N3CCC(CN4CCN(Cc5ccc(-n6c(O)nnc6-c6cc(CC)c(O)cc6O)cc5F)CC4)CC3)CC2)ccc1Nc1ncc2c(n1)N(S(C)(=O)=O)c1ccccc1C(=O)N2C [Compound 082, 2-((2-ethoxy-4-(4-(4-((4-(4-(3-(5-ethyl-2,4-dihydroxyphenyl)-5-hydroxy-4H-1,2,4-triazol-4-yl)-2-fluorobenzyl)piperazin-1-yl)methyl)piperidine-1-carbonyl)piperidin-1-yl)phenyl)amino)-5-methyl-11-(methylsulfonyl)-5,11-dihydro-6H-benzo[e]pyrimido[5,4-b][1,4]diazepin-6-one]
EC50 [1]: < 100 nM
IC50 (HSP90α protein): < 100 nM
EC50 [2]: < 100 nM
